Patent US20250092065A1, “2-(INDAZOL-5-YL)-6-(PIPERIDIN-4-YL)-1,7-NAPHTHYRIDINE DERIVATIVES AND RELATED COMPOUNDS AS MODULATORS FOR SPLICING NUCLEIC ACIDS AND FOR THE TREATMENT OF PROLIFERATIVE DISEASES” (REMIX THERAPEUTICS INC., priority 2022, published 2025)
Like-named read-outs stand apart in the source and are kept apart here.

Experiments:
HTT mRNA = experiment: RT-qPCR splicing assay, HTT mRNA canonical (CJ) and alternative (AJ) junction; assay type: cell-based, human; conditions: Homo sapiens; for AC50: HTT alternative junction mRNA, read-out: HTT AJ (increase in AJ mRNA, AC50)
In short: (§1)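 A673 or K562 cells treated 24 h at 37 °C with an 11-point 3-fold dilution series (top 10 uM, DMSO ≤0.25%). Lysates went directly to one-step RT-qPCR quantifying canonical (CJ) and alternative-exon (AJ) junctions, normalized to GAPDH, GUSB or PPIA. Values from ΔΔCt versus DMSO, RQ = 2^(−ΔΔCt), expressed as percentage response.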

MYB mRNA = experiment: RT-qPCR splicing assay, MYB mRNA canonical (CJ) and alternative (AJ) junction; assay type: cell-based, human; conditions: Homo sapiens; for AC50: MYB alternative junction mRNA, read-out: MYB AJ (increase in AJ mRNA, AC50)
In short: as §1

SMN2 mRNA = experiment: RT-qPCR splicing assay, SMN2 mRNA; assay type: cell-based, human; conditions: Homo sapiens, canonical junction qPCR panel, Table 4; read-out: SMN2 IC50 (decrease in CJ mRNA levels)
In short: as §1

Target C = experiment: RT-qPCR canonical junction panel assay, Target C mRNA; assay type: cell-based; conditions: Table 4, read-out: Target C IC50 (decrease in CJ mRNA levels)
In short: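 A673 or K562 cells treated with compound; CJ mRNA quantified by junction-spanning RT-qPCR probe after cDNA synthesis, normalised to GAPDH, GUSB or PPIA and DMSO (2^−ΔΔCt), scaled to set ΔCt assay window; IC50 from 4-parameter fit of CJ decrease.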

K562 cells = experiment: Cell Titer Glo 2.0 cell viability (toxicity) assay, K562; conditions: 500 cells/well, 72 hours
[1] = HTT canonical junction mRNA, RT-qPCR, read-out: HTT CJ (decrease in CJ mRNA levels, IC50)
[2] = canonical junction qPCR panel, Table 4, read-out: HTT IC50 (decrease in CJ mRNA levels)
[3] = MYB canonical junction mRNA, RT-qPCR, read-out: MYB CJ (decrease in CJ mRNA levels, IC50)
[4] = canonical junction qPCR panel, Table 4, read-out: MYB IC50 (decrease in CJ mRNA levels)

| SMILES | AC50 (HTT mRNA; RT-qPCR) [nM] | IC50 (HTT mRNA; [1]) [nM] | IC50 (HTT mRNA; [2]) [nM] | AC50 (MYB mRNA; RT-qPCR) [nM] | IC50 (MYB mRNA; [3]) [nM] | IC50 (MYB mRNA; [4]) [nM] | IC50 (SMN2 mRNA) [nM] | IC50 (Target C) [nM] | Effect of Exemplary Compounds on Cell Viability, K562 (K562 cells) |
| --- | --- | --- | --- | --- | --- | --- | --- | --- | --- |
| Cc1nc2c(C)c(O)c(-c3ccc4cc(N5CC[C@H](NC(C)(C)C)C5)ncc4n3)cc2o1 (single isomer, unassigned) [Compound 445] | 1000 to 10000 | 1000 to 10000 | 1000 to 10000 | 1000 to 10000 | 1000 to 10000 | 1000 to 10000 | 100 to 1000 | 1000 to 10000 | C (C represents 1000-9999 nM) |
| Cc1nc2cc(O)c(-c3ccc4nc(N5CC[C@@H](NC6(CF)CC6)C5)ccc4n3)cc2o1 (single isomer, unassigned) [Compound 488] | < 100 | < 100 | < 100 | < 100 | < 100 | < 100 | < 100 | < 100 | B (B represents 100-1000 nM) |
| Cc1nc2cc(O)c(-c3ccc4nc(N5CC[C@H](NC6(CF)CC6)C5)ccc4n3)cc2o1 (single isomer, unassigned) [Compound 489] | < 100 | < 100 | < 100 | < 100 | < 100 | < 100 | < 100 | 100 to 1000 | A (A represents <100 nM) |
| Cc1nc2c(F)c(O)c(-c3ccc4nc(N5CC[C@@H](NC6(CF)CC6)C5)ccc4n3)cc2o1 (single isomer, unassigned) [Compound 491] | < 100 | < 100 | < 100 | < 100 | < 100 | < 100 | < 100 | < 100 | A (A represents <100 nM) |
| Cn1cc2cc(-c3ccc4nc(N5CCC(NC6(CF)CC6)C5)ccc4n3)c(O)c(F)c2n1 (stereo in doubt) [Compound 353, 7-fluoro-5-{6-[(3R)-3-{[1-(fluoromethyl)cyclopropyl]amino}pyrrolidin-1-yl]-1,5-naphthyridin-2-yl}-2-methylindazol-6-ol] | < 100 | < 100 | < 100 | < 100 | < 100 | < 100 | < 100 | < 100 | A (A represents <100 nM) |
| Cn1cc2cc(-c3ccc4nc(N5CCC(NC6(CF)CC6)C5)ccc4n3)c(O)c(F)c2n1 (stereo in doubt) [Compound 357, 7-fluoro-5-{6-[(3S)-3-{[1-(fluoromethyl)cyclopropyl]amino}pyrrolidin-1-yl]-1,5-naphthyridin-2-yl}-2-methylindazol-6-ol] | < 100 | < 100 | < 100 | < 100 | < 100 | < 100 | < 100 | < 100 | A (A represents <100 nM) |
| Cn1cc2cc(-c3ccc4nc(N5CCC(N)C5)ccc4n3)c(O)c(F)c2n1 (stereo in doubt) [Compound 363, 5-{6-[(3R)-3-aminopyrrolidin-1-yl]-1,5-naphthyridin-2-yl}-7-fluoro-2-methylindazol-6-ol] | < 100 | < 100 | < 100 | < 100 | < 100 | < 100 | < 100 | < 100 | A (A represents <100 nM) |
| Cc1nc2c(F)c(O)c(-c3ccc4nc(N5CC[C@@H](N[C@H]6C[C@@H](F)C6)C5)ccc4n3)cc2o1 (stereo in doubt) [Compound 375] | < 100 | < 100 | < 100 | < 100 | < 100 | < 100 | < 100 | < 100 | A (A represents <100 nM) |
| Cc1nc2c(C)c(O)c(-c3ccc4nc(N5CC[C@@H](N[C@H]6C[C@@H](F)C6)C5)ccc4n3)cc2o1 (stereo in doubt) [Compound 376] | 100 to 1000 | < 100 | < 100 | < 100 | < 100 | < 100 | < 100 | 100 to 1000 | B (B represents 100-1000 nM) |
| Cc1nc2c(C)c(O)c(-c3ccc4nc(N5CC[C@H](N[C@H]6C[C@@H](F)C6)C5)ccc4n3)cc2o1 (stereo in doubt) [Compound 377] | < 100 | < 100 | < 100 | < 100 | < 100 | < 100 | < 100 | < 100 | B (B represents 100-1000 nM) |
| Cc1nc2cc(O)c(-c3ccc4nc(N5CC[C@@H](N[C@H]6C[C@@H](F)C6)C5)ccc4n3)cc2o1 (stereo in doubt) [Compound 395] | 100 to 1000 | 100 to 1000 | 100 to 1000 | 100 to 1000 | 100 to 1000 | 100 to 1000 | < 100 | 1000 to 10000 | B (B represents 100-1000 nM) |
| Cc1nc2cc(O)c(-c3ccc4nc(N5CC[C@H](N[C@H]6C[C@@H](F)C6)C5)ccc4n3)cc2o1 (stereo in doubt) [Compound 396] | < 100 | < 100 | < 100 | 100 to 1000 | 100 to 1000 | 100 to 1000 | < 100 | 100 to 1000 | B (B represents 100-1000 nM) |
| Cn1cc2cc(-c3ccc4nc(N5CC[C@@H](NC6(CF)CC6)C5)ccc4n3)c(O)cc2n1 [Compound 354, 5-{6-[(3R)-3-{[1-(fluoromethyl)cyclopropyl]amino}pyrrolidin-1-yl]-1,5-naphthyridin-2-yl}-2-methylindazol-6-ol] | < 100 | < 100 | < 100 | < 100 | < 100 | < 100 | < 100 | < 100 | B (B represents 100-1000 nM) |
| Cn1cc2cc(-c3ccc4nc(N5CC[C@H](NC6(CF)CC6)C5)ccc4n3)c(O)cc2n1 [Compound 355, 5-{6-[(3S)-3-{[1-(fluoromethyl)cyclopropyl]amino}pyrrolidin-1-yl]-1,5-naphthyridin-2-yl}-2-methylindazol-6-ol] | < 100 | < 100 | < 100 | < 100 | < 100 | < 100 | < 100 | 100 to 1000 | B (B represents 100-1000 nM) |
| Cc1c(O)c(-c2ccc3nc(N4CCC(NC5(CF)CC5)C4)ccc3n2)cc2cn(C)nc12 (stereo not drawn) [Compound 360, 5-[6-(3-{[1-(fluoromethyl)cyclopropyl]amino}pyrrolidin-1-yl)-1,5-naphthyridin-2-yl]-2,7-dimethylindazol-6-ol] | < 100 | < 100 | < 100 | < 100 | < 100 | < 100 | < 100 | < 100 | B (B represents 100-1000 nM) |
| Cc1c(O)c(-c2cc(C(C)O)c3nc(N4CCNCC4)ccc3n2)cc2cn(C)nc12 (stereo not drawn) [Compound 364, 5-[4-(1-hydroxyethyl)-6-(piperazin-1-yl)-1,5-naphthyridin-2-yl]-2,7-dimethylindazol-6-ol] | > 10000 | > 10000 | > 10000 | 1000 to 10000 | 1000 to 10000 | 1000 to 10000 | 100 to 1000 | > 10000 | B (B represents 100-1000 nM) |
| Cc1c(O)c(-c2ncc3nc(C4CCNCC4)ccc3n2)cc2cn(C)nc12 [Compound 370, 2,7-dimethyl-5-[6-(piperidin-4-yl)pyrido[3,2-d]pyrimidin-2-yl]indazol-6-ol] | 1000 to 10000 | 100 to 1000 | 100 to 1000 | 100 to 1000 | 100 to 1000 | 100 to 1000 | < 100 | 1000 to 10000 | C (C represents 1000-9999 nM) |
| Cc1nc2c(F)c(O)c(-c3ccc4nc(N5CC[C@H](N[C@H]6C[C@@H](F)C6)C5)ccc4n3)cc2o1 [Compound 374, 4-fluoro-2-methyl-6-[6-(3-{[(1r,3r)-3-fluorocyclobutyl]amino}pyrrolidin-1-yl)-1,5-naphthyridin-2-yl]-1,3-benzoxazol-5-ol] | < 100 | < 100 | < 100 | < 100 | < 100 | < 100 | < 100 | < 100 | A (A represents <100 nM) |
